{
  "source": "patent US12285459B2",
  "about": "“Saposin-A derived peptides and uses thereof” (CHILDREN'S MEDICAL CENTER CORPORATION, priority 2011, dated 2025)",
  "origin": "cited, not measured here",
  "system": "VEGF",
  "details": "cited from earlier work",
  "data": [
    {"smiles": "CN(C)c1ccc(/C=C2\\C(=O)Nc3ccccc32)cc1", "note": "[SU 4312]", "values": [
      {"measurement": "vessel formation", "value": "blocked"}
    ]}
  ]
}
